Counter-ions that a name gives are not always drawn.
What was measured:
ST738 tumors = experiment: TNBC PDX tumor model; assay type: in vivo, Balb/c nu/nu mice; conditions: Eribulin mesylate 1 mg/kg once a week for two weeks
Experimental: (§1) Female Balb/c nu/nu mice were fed ad libitum with folate-deficient chow (Harlan diet #TD01013) for the duration of the experiment. Primary human Endometrial model ST040, TNBC models 5T502 and ST738 and Ovarian model ST024 fragments (2-4 mm in diameter) were inoculated subcutaneously at the right flank of each mouse. Mice were randomized into 6 experimental groups of 5 or 3 mice each and test articles were injected through the lateral tail vein under sterile conditions in a volume of 200 μL of phosphate-buffered saline (PBS).
(§2) Growth of each s.c. tumor was followed by measuring the tumor two times per week until a volume of 1200 mm^3 was reached. Tumors were measured in two perpendicular directions using Vernier calipers, and their volumes were calculated as 0.5×L×W^2, where L=measurement of longest axis in mm and W=measurement of axis perpendicular to L in mm.

ST502 tumors = experiment: TNBC PDX tumor model; assay type: in vivo, Balb/c nu/nu mice; conditions: Eribulin mesylate 1 mg/kg once a week for two weeks
Experimental: as §1, §2

ST040 tumors = experiment: Endometrial PDX tumor model; assay type: in vivo, Balb/c nu/nu mice; conditions: Paclitaxel 15 mg/kg once a week for two weeks
Experimental: as §1, §2

ST024 tumors = experiment: Ovarian PDX tumor model; assay type: in vivo, Balb/c nu/nu mice; conditions: Paclitaxel 15 mg/kg once a week for two weeks
Experimental: as §1, §2

KB tumors = experiment: Inhibition of tumor growth, s.c. KB tumors; assay type: in vivo, nu/nu mice; conditions: for CR (%) / Cures (%) / PR (%): TIW, 2 weeks
Experimental: METHOD. Inhibition of Tumor Growth in Mice. Four to seven week-old mice (Balb/c or nu/nu strains) were purchased from Harlan Sprague Dawley, Inc. (Indianapolis, Ind.). Normal rodent chow contains a high concentration of folic acid (6 mg/kg chow); accordingly, test animals were maintained on a folate-free diet (Harlan diet #TD00434) for about 1 week before tumor implantation to achieve serum folate concentrations close to the range of normal human serum, and during the Method. For tumor cell inoculation, 1×10^6 M109 cells (a syngeneic lung carcinoma) in Balb/c strain, or 1×10^6 KB cells in nu/nu strain, in 100 μL were injected in the subcutis of the dorsal medial area (right axilla). Tumors were measured in two perpendicular directions every 2-3 days using a caliper, and their volumes were calculated as 0.5×L×W^2, where L=measurement of longest axis in mm and W=measurement of axis perpendicular to L in mm.
Dosing solutions were prepared fresh each day in PBS and administered through the lateral tail vein of the mice.
Tumor implantation. KB tumor cells were grown in folate-deficient RPMI 1640 with 5% FBS at 37° C. in a 5% CO2 humidified atmosphere. KB (1×10^6 cells per animal) tumor cells were inoculated subcutaneously […] post start of the folate deficient diet. Mice were dosed after the tumors reached between 100-150 mm3.
Preparation of dosing drug solutions. Dosing solutions were prepared when dosing began by weighing appropriate amounts of each compound, reconstituting in PBS, pH 7.4, sterile filtering the drug solution through a 0.22 µm PVDF syringe filter, and freezing aliquots for each day of dosing at −20° C.
(§3) Evaluation. Tumor size was monitored and body weight measured 3 times/week. Attention was given to gross animal morphology and behavior. Euthanasia was performed if the mice lost >20% of weight or when the tumors reached a size of 1500 mm3. Euthanasia was also performed at the researcher's discretion if mice lost a lot of weight in a short duration or when mice were approaching moribund conditions. Blood samples were collected by cardiac puncture from all viable animals from selected cohorts. Heart, lungs, liver, spleen, kidney, intestines, bone, brain and muscle were obtained immediately after euthanasia. The tissues were removed and stored in 10% neutral-buffered formalin.
For example, a 50% decrease in tumor volume from the initial measurement represents a partial response.
For example, a decrease in tumor volume where the measurements in two perpendicular directions are each about 2 mm or less represents a complete response.

[1] = Toxicity as measured by weight loss / gross animal toxicity in tumor-bearing mice; conditions: for Toxicity Avg. Weight Loss / Toxicity Deaths (%): TIW, 2 weeks
Experimental: METHOD. Toxicity as Measured by Weight Loss. The percentage weight change of the test animals was determined on selected days post-tumor inoculation (PTI), and during dosing. The results were graphed.
as §3

[2] = Cytotoxicity of unconjugated drugs to cells in culture; assay type: cell-based; conditions: cells in culture; unconjugated drug; read-out: typical IC50, cytotoxic to cells in culture
cells in culture = experiment: as above; assay type: cell-based; conditions: unconjugated drug; read-out: typical IC50, cytotoxic to cells in culture
[3] = system: KB-CR2000 (cisplatin resistant) tumors; experiment: Cisplatin-resistant KB-CR2000 tumor model; assay type: in vivo, mice; conditions: cisplatin 3 mg/kg twice per week, 2 weeks
Source text: METHOD. Human cisplatin-resistant cell line. […] In addition, regrowth of the tumor was only observed in 1/5 test animals.

LU1147 NSCLC tumors = experiment: Huprime NSCLC PDX tumor model; assay type: in vivo, Balb/c nu/nu mice; conditions: Docetaxel 15 mg/kg (one dose)
Experimental: (§4) Female Balb/c nu/nu mice were fed ad libitum with folate-deficient chow (Harlan diet #TD01013) for the duration of the experiment. Primary human NSCLC models LU1147 or LU2505 fragments (2-4 mm in diameter) were inoculated subcutaneously at the right flank of each mouse. Mice were randomized into experimental groups of 7 mice and test articles were injected through the lateral tail vein under sterile conditions in a volume of 200 μL of phosphate-buffered saline (PBS). These studies were performed at Crown Bioscience (Beijing) Inc., Ground Floor, Light Muller Building, Changping Sector of Zhongguancun Scientific Park, No. 21 Huoju Road, Changping District, Beijing, P.R. China.
as §2

LU2505 NSCLC tumors = experiment: Huprime NSCLC PDX tumor model; assay type: in vivo, Balb/c nu/nu mice; conditions: Docetaxel 15 mg/kg (one dose)
Experimental: as §4, §2

[4] = 1.0 μmol/kg (2 doses, only 2 doses due to toxicity)
[5] = KB tumors, 1.0 μmol/kg (2 doses)
[6] = KB tumors, 0.1 μmol/kg (4 doses)
[7] = KB tumors, 0.2 μmol/kg (3 doses)
[8] = KB tumors, 0.5 μmol/kg (1 dose)
[9] = Carboplatin 30 mg/kg BIW×2 combined with paclitaxel 10 mg/kg BIW×2

C=C1C[C@@H]2CC[C@@]34C[C@H]5O[C@H]6[C@@H](O3)[C@H]3O[C@H](CC[C@@H]3O[C@H]6[C@H]5O4)CC(=O)C[C@@H]3[C@@H](OC)[C@@H](C[C@H](O)CN)O[C@H]3C[C@H]3O[C@@H](CC[C@@H]1O2)C[C@@H](C)C3=C [Eribulin mesylate, eribulin mesylate, reference compound]
PR's (ST738 tumors): 2
animals exhibiting stable disease (ST738 tumors): 5 animals
animal exhibiting PR (ST502 tumors): 1 animal
animal exhibiting stable disease (ST502 tumors): 1 animal

CC(=O)O[C@H]1C(=O)[C@@]2(C)[C@H]([C@H](OC(=O)c3ccccc3)[C@]3(O)C[C@H](OC(=O)[C@H](O)[C@@H](NC(=O)c4ccccc4)c4ccccc4)C(C)=C1C3(C)C)[C@]1(OC(C)=O)CO[C@@H]1C[C@@H]2O [Paclitaxel, paclitaxel, reference compound]
animals exhibiting stable disease (ST040 tumors): zero
anti-tumor activity (ST024 tumors): no anti-tumor activity

CCCC(=O)OCN(C(=O)[C@@H](NC(=O)[C@H]1CCCCN1C)C(C)CC)[C@H](C[C@@H](OC(C)=O)c1nc(C(=O)N[C@@H](Cc2ccc(O)cc2)C[C@H](C)C(=O)NN)cs1)C(C)C (stereo partly shown) [TubB-H, reference compound]
CR (%) (KB tumors; 0.5 μmol/kg): 0%
Cures (%) (KB tumors; 0.5 μmol/kg): 0%
PR (%) (KB tumors; 0.5 μmol/kg): 0%
CR (%) (KB tumors; 0.75 μmol/kg): 0%
Cures (%) (KB tumors; 0.75 μmol/kg): 0%
PR (%) (KB tumors; 0.75 μmol/kg): 0%
CR (%) (KB tumors; [4]): 0%
Cures (%) (KB tumors; [4]): 0%
PR (%) (KB tumors; [4]): 0%
Toxicity Avg. Weight Loss ([1]; KB tumors, 0.5 μmol/kg): <5.5%
Toxicity Deaths (%) ([1]; KB tumors, 0.5 μmol/kg): 0%
Toxicity Avg. Weight Loss ([1]; KB tumors, 0.75 μmol/kg): >10%
Toxicity Deaths (%) ([1]; KB tumors, 0.75 μmol/kg): 20%
Toxicity Avg. Weight Loss [1, 5]: >15%
Toxicity Deaths (%) [1, 5]: 20%
IC50 [2]: ~1 nM

CCCC(=O)OCN(C(=O)[C@@H](NC(=O)[C@H]1CCCCN1C)[C@@H](C)CC)[C@H](C[C@@H](OC(C)=O)c1nc(C(=O)N[C@@H](Cc2ccc(O)cc2)C[C@H](C)C(=O)O)cs1)C(C)C [Tubulysin B, tubulysin B, reference compound]
CR (%) (KB tumors; 0.1 μmol/kg (4 doses)): 0%
Cures (%) (KB tumors; 0.1 μmol/kg (4 doses)): 0%
PR (%) (KB tumors; 0.1 μmol/kg (4 doses)): 0%
CR (%) (KB tumors; 0.2 μmol/kg (3 doses)): 0%
Cures (%) (KB tumors; 0.2 μmol/kg (3 doses)): 0%
PR (%) (KB tumors; 0.2 μmol/kg (3 doses)): 0%
CR (%) (KB tumors; 0.5 μmol/kg (1 dose)): 0%
Cures (%) (KB tumors; 0.5 μmol/kg (1 dose)): 0%
PR (%) (KB tumors; 0.5 μmol/kg (1 dose)): 0%
Toxicity Avg. Weight Loss [1, 6]: >20%
Toxicity Deaths (%) [1, 6]: 100%
Toxicity Avg. Weight Loss [1, 7]: >18%
Toxicity Deaths (%) [1, 7]: 100%
Toxicity Avg. Weight Loss [1, 8]: >15%
Toxicity Deaths (%) [1, 8]: 100%
IC50 (cells in culture): ~1 nM

N.N.O=C([O-])C1(C(=O)[O-])CCC1.[Pt+2] [carboplatin, reference compound]
CR's (KB tumors; [9]): 80%
cures (KB tumors; [9]): 20%
toxicity ([1]; KB tumors, carboplatin/paclitaxel study, carboplatin administered alone): Mild toxicity
toxicity ([1]; P-1635 KB tumors, carboplatin alone 50 mg/kg TIW): Mild toxicity

N.N.[Cl][Pt][Cl] [cisplatin, reference compound]
partial response (PR) [3]: did not produce even a single partial response

CC(=O)O[C@@]12CO[C@@H]1C[C@H](O)[C@@]1(C)C(=O)[C@H](O)C3=C(C)[C@@H](OC(=O)[C@H](O)[C@@H](NC(=O)OC(C)(C)C)c4ccccc4)C[C@@](O)([C@@H](OC(=O)c4ccccc4)[C@H]21)C3(C)C [docetaxel]
animals exhibiting stable disease (LU1147 NSCLC tumors): 2 animals
CR's (LU2505 NSCLC tumors): 2
PR's (LU2505 NSCLC tumors): 2
cures (LU2505 NSCLC tumors): 2
toxicity ([1]; KB tumors, docetaxel alone 7 mg/kg BIW×3): Mild toxicity

COc1cccc2c1C(=O)c1c(O)c3c(c(O)c1C2=O)C[C@@](O)(C(=O)CO)C[C@@H]3O[C@H]1C[C@H](N)[C@H](O)[C@H](C)O1 [doxorubicin, reference compound]
toxicity ([1]; KB-DR150 tumors, doxorubicin alone, DOXIL 5 mg/kg BIW×2): Mild toxicity

From patent US20170035894A1, “DRUG DELIVERY CONJUGATES FOR TREATING RESISTANT CANCER AND FOR USE IN COMBINATION THERAPY” (ENDOCYTE, INC., priority 2014, published 2017)
